Assay type in all cases: cell-based
Experiment [1] relates to LPS activated BMΦ (rat microglia). Description: Assay for BMΦ O2− generation (SOD-inhibitable reduction of ferricytochrome C), PMA-stimulated, LPS-activated BMΦ. Particulars: PMA (1 μM)-stimulated O2− release from LPS (0.3 ng/ml, 17 h)-activated rat BMΦ, manzamine 20 min preincubation + 70 min. The method, then:
(§1) Isolation and culture of rat BMΦ. Briefly to prepare primary BMΦ cultures, cerebral cortices from 1-2-day-old Sprague-Dawley rats (Harlan, Indianapolis, Ind.) were placed in cold DMEM+10% heat-inactivated FBS+120 U/ml P and 12 μg/ml S, meninges carefully removed, brain tissue minced and dissociated with trypsin-EDTA at 37° C. for 3-5 minutes. The mixed glial cell suspension was plated in either 75 or 162 cm^2 culture flasks with DMEM containing 10% heat-inactivated FBS+120 U/ml P and 12 μg/ml S and grown in a humidified 5% CO2 incubator at 37° C. On day 7 of culture, flasks were shaken (90 rpm, 20 min, 37° C.) and media exchanged. On day 14 and every 3-4 days thereafter, BMΦ were detached using an orbital shaker (200 rpm, 2 hours, 37° C., 5% CO2), then centrifuged (450×g, 25 min, 4° C.). The pellet containing BMΦ was resuspended gently with cold DMEM, cell number and viability assessed by trypan blue exclusion. Purified BMΦ obtained by our method averaged>than 95% viability. Microglia were characterized as previously described (Mayer et al., 1999, supra).
Assay for BMΦ O2^− generation. BMΦ O2^− generation was determined by the superoxide dismutase(SOD)-inhibitable reduction of ferricytochrome C(FCC) (Mayer et al., 1999, supra). Briefly, spontaneous O2^− release from unstimulated BMΦ was measured in the presence of FCC (50 μM) and HBSS with or without SOD (700 units). To determine PMA-stimulated O2^− release, BMΦ containing wells received FCC, HBSS and PMA [1 μM] with or without SOD which inhibited>95% of FCC reduction. All experimental treatments were run in triplicate and in a final volume of 1 ml. Changes in absorbance of BMΦ supernatants were measured at 550 nm using a Beckman DU-650 Spectrophotometer. Differences in the amount of reduced FCC in the presence or absence of SOD were used to determine BMΦ O2^− generation by employing the molecular extinction coefficient of 21.0×10^3 M^−1 cm^−1.
(§2) To establish the effect of Manzamine A, B, C, D, E and F on BMΦ O2^−, TXB2, and LDH generation the following procedure was used:
(§3) (1) 2-5×10^5 BMΦ were seeded into each well of 24-well flat-bottom culture clusters.
(§4) (2) 1 ml of DMEM+10% heat-inactivated FBS+120 U/ml P and 12 μg/ml S were added.
(§5) (3) BMΦ were allowed to attach for 2 hours, at 37° C., 5% CO2, and monolayers then washed 3 times with 1 ml warm (37° C.) DMEM+10% heat-inactivated FBS+120 U/ml P and 12 μg/ml S were added.
(§6) (4) 1 ml of DMEM+10% heat-inactivated FBS+120 U/ml P and 12 μg/ml S were added.
(§7) (5) Then, LPS (0.3 ng/ml final concentration) was added to each well.
(§8) (6) BMΦ were then incubated for 17 hours in a humidified 5% CO2 incubator at 37° C.
(§9) (7) Thereafter, the media was removed from each tissue culture well and discarded.
(§10) (8) BMΦ monolayers were washed 3 times with 1 ml warm (37° C.) HBSS.
(§11) To study the effect of Manzamines A, B, C, D, E and F on PMA-stimulated release of O2^− and TXB2 from BMΦ activated with LPS as described in (A) we proceeded as follows.
(§12) (1) Add HBSS, Manzamines A, or B, or C, or D, or E, or F, DMSO and Triton X-100 1% to the tissue culture wells containing LPS-activated BMΦ, as shown in Table 1.
(§13) (2) Incubate the tissue culture plates for 20 minutes in a humidified 5% CO2 incubator at 37° C.
(§14) (3) Remove the tissue culture plates from the incubator and return to laminar flow hood.
(§15) (4) Incubate tissue culture plates for an additional 70 minutes in CO2 incubator at 37° C.
(5) When incubation is complete, aspirate BMΦ supernates from each well (1 ml), and place in a 1.5 ml microcuvette. Proceed to reach absorbance as indicated above in Assay for BMΦ O2^− generation.

For experiment [2] the test system is unchanged. Description: Assay for BMΦ thromboxane B2 (TXB2) generation (immunoassay), PMA-stimulated, LPS-activated BMΦ. Particulars: PMA (1 μM)-stimulated TXB2 release from LPS (0.3 ng/ml, 17 h)-activated rat BMΦ, manzamine 20 min preincubation + 70 min. Here is the method:
as §1
Assay for BMΦ thromboxane B2 (TXB2) generation. Following stimulation with PMA, TXB2 generation in the BMΦ culture supernatants was measured using immunoassays (Cayman Chemical, Ann Arbor, Mich.) as indicated by the manufacturer's protocol (Mayer, et al., 1999, supra).
as §2, §3, §4, §5, §6, §7, §8, §9, §10, §11, §12, §13, §14, §15
(§16) (6) Once (5) is completed use the same BMΦ supernates to determine both LDH and TXB2 as described above in Assay for BMΦ TXB2 generation and LDH assay.

Experiment [3] concerns the target LPS activated BMΦ (rat microglia). Description: LDH assay (lactate dehydrogenase release, BMΦ viability). Conditions: LDH release (toxicity) from LPS-activated rat BMΦ, same supernates. The method, then: as §1
LDH assay. To assess BMΦ viability following incubation with vehicle (DMSO) or the manzamines, lactate dehydrogenase (LDH) release was determined spectrophotometrically as previously described (Mayer et al., 1999, supra).
as §2, §3, §4, §5, §6, §7, §8, §9, §10, §11, §12, §13, §14, §15, §16

By IC50 is commonly meant the concentration at which inhibition is half-maximal.

Turning to `O[C@]12C=C(c3nccc4c3[nH]c3ccccc34)[C@@H]3CCN(CCCC/C=C\CC1)C[C@@]31C[C@@H]3/C=C\CCCCN3[C@H]12` [Manzamine A, manzamine A], the IC50 was 0.1 µM in experiment [1], under 0.1 µM in experiment [2] and over 30 µM in experiment [3].

As to `C1=C\CC[C@]23CN4CCCC/C=C\CC[C@@]5(OC5[C@@H](c5nccc6c5[nH]c5ccccc56)[C@@H]2CC4)[C@@H]3NCCCC/1` (some centres unmarked) [Manzamine B, manzamine B], the half-inhibitory concentration (IC50) in experiment [1] (Microglia) was about 5 µM; in experiment [2] (Microglia), about 3 µM; in experiment [3] (Microglia), about 3 µM.

As for `C1=C\CCCCN(CCc2nccc3c2[nH]c2ccccc23)CCCC/1` [Manzamine C, manzamine C], the half-inhibitory concentration (IC50) in experiment [1] (Microglia), in experiment [2] (Microglia) and in experiment [3] (Microglia) was about 5 µM in each case.

Take `O[C@]12C=C(C3NCCc4c3[nH]c3ccccc43)[C@@H]3CCN(CCCC/C=C\CC1)C[C@@]31CC3/C=C\CCCCN3[C@H]12` (some centres unmarked) [Manzamine D, manzamine D]: the results for the half-inhibitory concentration (IC50) in experiment [1] (Microglia), in experiment [2] (Microglia) and in experiment [3] (Microglia) were about 0.5 µM, about 0.3 µM and about 0.5 µM, respectively.

For the molecule `O=C1CCCN2C(CC1)C[C@]13CN4CCCC/C=C\CC[C@](O)(C=C(c5nccc6c5[nH]c5ccccc56)[C@@H]1CC4)[C@H]23` (some centres unmarked) [Manzamine E, manzamine E], the IC50 in experiment [1] (Microglia) and in experiment [3] (Microglia) was over 10 µM each time.

For `O=C1CCCN2[C@@H](CC1)C[C@]13CN4CCCC/C=C\CC[C@](O)(C=C(c5nccc6c5[nH]c5c(O)cccc56)C1CC4)[C@H]23` (some centres unmarked) [Manzamine F, manzamine F], the IC50 in experiment [1] (Microglia), in experiment [2] (Microglia) and in experiment [3] (Microglia) was over 10 µM in each case.

The values above are taken from patent US6602881B2, “Anti-inflammatory uses of manzamines” (priority 1999, dated 2003).
